Results from patent publication US9115341B2, “Method for expanding hematopoietic stem cells using heterocyclic compound” (Nissan Chemical Industries, Ltd., priority 2007, dated 2015).

System: human cord blood-derived CD34+ cells
Experiment: Expansion of CD34+ cells from human cord blood-derived CD34+ cells
Assay type: cell-based
Details: 168 h, number of CD34+ cells relative to absence of compound, 7 days, StemSpan SFEM with 100 ng/mL SCF, read-out: Expansion efficiency; for fold induction at 1 µg/mL: 1 μg/mL compound; for fold induction at 0.3 µg/mL: 0.3 μg/mL compound
Method: Commercially available human cord blood-derived CD34^+ cells (Cambrex Bio Science Walkersville) were plated on a 12-well plate (Corning) (from 5000 to 10000 cells/1 ml/well). As the culture medium, StemSpan SFEM (Stemcell Technologies) containing 100 ng/mL SCF (R&D Systems) was used, and Compounds Nos. 1 to 37 dissolved in dimethyl sulfoxide were added in an amount of 0.1% (v/v) to a final concentration of 0.3 or 1 μg/mL.
After the cells were incubated in liquid culture at 37° C. for 7 days in a CO2 incubator (in an atmosphere containing 5 vol % CO2), the total number of cells was counted by trypan blue assay (Invitrogen) or Flow-Count™ fluorosphere assay (Beckman Coulter). The number of CD34^+ cells was calculated as follows. After the incubation, the cells in the liquid culture was stained with a CD34 antibody (PE, Becton, Dickinson and Company). The stained cells were analyzed with a flow cytometer (Beckman Coulter) to determined the proportion of CD34^+ cells, which was multiplied by the total number of cells to calculate the number of CD34^+ cells.
The expansion efficiencies in the presence of 0.3 μg/mL or 1 μg/mL of compounds based on the number of CD34^+ cells in the absence of them are shown in Table 2 on a scale of A for expansion efficiencies of 3 or greater, and B for expansion efficiencies of at least 2 and less than 3.

Compound | fold induction at 1 µg/mL | fold induction at 0.3 µg/mL
C/C(=N\NC(=S)Nc1ccc(C(=O)O)c([N+](=O)[O-])c1)c1csc(-c2ccc(C(F)(F)F)cc2)c1O [Compound 12] | ≥ 3 | 
C/C(=N\NC(=S)Nc1ccc(C(=O)O)cc1)c1nn(C)c(-c2ccc(C(F)(F)F)cc2)c1O [Compound 1] | ≥ 3 | 
C/C(=N\NC(=O)c1ccc(C(=O)NCCO)s1)c1csc(-c2ccc(C(F)(F)F)cc2)c1O [Compound 19] | ≥ 3 | 
C/C(=N\NC(=O)c1ccc(C(=O)O)cc1N)c1nn(C)c(-c2ccc(C(F)(F)F)cc2)c1O [Compound 24] | ≥ 3 | 
C/C(=N\NC(=O)c1ccc(C(=O)O)cc1)c1csc(-c2ccc(Cl)c(Cl)c2)c1O [Compound 2] | 2 to 3 | 
C/C(=N\NC(=O)c1ccc(C(=O)O)c([NH2+][O-])c1)c1csc(-c2ccc(C(C)(C)C)cc2)c1O [Compound 4] | ≥ 3 | 
C/C(=N\NC(=S)Nc1ccc(C(=O)O)c([N+](=O)[O-])c1)c1csc(-c2ccc(Cl)c(Cl)c2)c1O [Compound 11] | ≥ 3 | 
C/C(=N\NC(=S)Nc1cccc(C(=O)O)c1)c1csc(-c2ccc(C)c(C)c2)c1O [Compound 21] | ≥ 3 | 
C/C(=N\NC(=O)c1ccc(C(=O)NCCc2cccnc2)s1)c1csc(-c2ccc(Cl)c(Cl)c2)c1O [Compound 29] |  | ≥ 3
C/C(=N\NC(=O)c1ccc(C(=O)NCCc2ccncc2)s1)c1csc(-c2ccc(Cl)c(Cl)c2)c1O [Compound 28] | ≥ 3 | 
C/C(=N\NC(=O)c1ccc(C(=O)NC(C)C)s1)c1nn(C)c(-c2ccc(Cl)c(Cl)c2)c1O [Compound 26] | ≥ 3 | 
C/C(=N\NC(=S)Nc1cccc(C(=O)O)c1)c1csc(-c2ccc(C(C)(C)C)cc2)c1O [Compound 20] | ≥ 3 | 
C/C(=N\NC(=S)Nc1ccc(C(=O)O)c(Cl)c1)c1csc(-c2ccc(Cl)c(Cl)c2)c1O [Compound 14] | ≥ 3 | 
C/C(=N\NC(=O)c1ccc(C(=O)NCCc2ccncc2)s1)c1csc(-c2ccc(OC(F)(F)F)cc2)c1O [Compound 30] |  | ≥ 3
C/C(=N\NC(=O)c1ccc(C(=O)O)c([NH2+][O-])c1)c1csc(-c2ccc(Cl)c(Cl)c2)c1O [Compound 5] | 2 to 3 | 
C/C(=N\NC(=O)c1ccc(C(=O)O)c([NH2+][O-])c1)c1csc(-c2ccc(C(F)(F)F)cc2)c1O [Compound 8] | ≥ 3 | 
C/C(=N\NC(=S)Nc1cccc(C(=O)O)c1)c1csc(-c2ccc(Cl)c(Cl)c2)c1O [Compound 16] | 2 to 3 | 
C/C(=N\NC(=O)c1ccc(C(=O)NCc2cc(C)n(C)n2)s1)c1nn(C)c(-c2ccc(C(F)(F)F)cc2)c1O [Compound 37] | ≥ 3 | 

Compound | fold induction at 1 µg/mL | fold induction at 0.3 µg/mL
C/C(=N\NC(=O)c1ccc(C(=O)O)s1)c1csc(-c2ccc(C(F)(F)F)cc2)c1O [Compound 7] | ≥ 3 | 
C/C(=N\NC(=O)c1ccc(C(=O)NCCCc2ccncc2)s1)c1csc(-c2ccc(C(F)(F)F)cc2)c1O [Compound 36] | ≥ 3 | 
C/C(=N\NC(=S)Nc1ccc(C(=O)O)cc1)c1csc(-c2ccc(C)c(C)c2)c1O [Compound 22] | ≥ 3 | 
C/C(=N\NC(=S)Nc1ccc(C(=O)O)c([N+](=O)[O-])c1)c1csc(-c2ccc(C(C)(C)C)cc2)c1O [Compound 10] | ≥ 3 | 
C/C(=N\NC(=O)c1ccc(C(=O)NCCc2ccncc2)s1)c1csc(-c2ccc(C(F)(F)F)cc2)c1O [Compound 31] |  | ≥ 3
C/C(=N\NC(=O)c1ccc(C(=O)NCCc2ccccn2)s1)c1csc(-c2ccc(Cl)c(Cl)c2)c1O [Compound 27] |  | 2 to 3
C/C(=N\NC(=O)c1ccc(C(=O)O)s1)c1csc(-c2ccc(Cl)c(Cl)c2)c1O [Compound 6] | 2 to 3 | 
C/C(=N\NC(=S)Nc1ccc(S(N)(=O)=O)cc1)c1nn(C)c(-c2ccc(Cl)c(Cl)c2)c1O [Compound 23] | 2 to 3 | 
C/C(=N\NC(=S)Nc1ccc(C(=O)O)c(Cl)c1)c1nn(C)c(-c2ccc(C(F)(F)F)cc2)c1O [Compound 13] | ≥ 3 | 
C/C(=N\NC(=S)Nc1cccc(C(=O)O)c1)c1nn(C)c(-c2ccc(C(F)(F)F)cc2)c1O [Compound 18] | ≥ 3 | 
C/C(=N\NC(=O)c1ccc(C(=O)NCCc2cccnc2)s1)c1csc(-c2ccc(OC(F)(F)F)cc2)c1O [Compound 32] |  | ≥ 3
C/C(=N\NC(=O)c1ccc(C(=O)NCCCc2ccncc2)s1)c1csc(-c2ccc(Cl)c(Cl)c2)c1O [Compound 34] | ≥ 3 | 
C/C(=N\NC(=O)c1ccc(C(=O)NCC(=O)O)s1)c1csc(-c2ccc(OC(F)(F)F)cc2)c1O [Compound 25] | ≥ 3 | 
C/C(=N\NC(=O)c1ccc(C(=O)NCCc2ccnn2C)s1)c1csc(-c2ccc(Cl)c(Cl)c2)c1O [Compound 35] | ≥ 3 | 
C/C(=N\NC(=O)c1ccc(C(=O)N2CCCC2)s1)c1csc(-c2ccc(C(F)(F)F)cc2)c1O [Compound 15] | ≥ 3 | 
C/C(=N\NC(=O)c1ccc(C(=O)NCCc2cccnc2)s1)c1csc(-c2ccc(C(F)(F)F)cc2)c1O [Compound 33] |  | ≥ 3
C/C(=N\NC(=S)Nc1ccc(C(=O)O)cc1)c1csc(-c2ccc(C(F)(F)F)cc2)c1O [Compound 3] | ≥ 3 | 
